Source: patent US10717740B2, “Solid forms of acalabrutinib and process for preparation thereof” (DR. REDDY'S LABORATORIES LIMITED, priority 2017, dated 2020)

Assay: Solid-state storage stability of the crystalline form
Type: physicochemical

Measured: stability of crystalline form on storage

CC#CC(=O)N1CCC[C@H]1c1nc(-c2ccc(C(=O)Nc3ccccn3)cc2)c2c(N)nccn12 [form RSV3, acalabrutinib]
stable: 3 months at 2-8° C. | 3 months at 25° C./60% RH | 3 months at 40° C./75% RH
